Experimental data as given in patent US12226404B2, “Methods for making compositions for pulmonary administration” (Board of Regents, the University of Texas System, priority 2007, dated 2025).
Converted amounts (≈) assume the structure as drawn. “And” between values parts separate entries of the source, which are not always exact repeats. Equal entries are not always repeated.

Experiments:
[1] = Evaluation of rodent dosing apparatus with nebulized ITZ colloidal suspension, in vivo lung concentration; design: species or system outbred ICR mice; settings: individual mice, 5 min nebulization
Excerpt: As used herein, the term “pre-clinical rodent dosing apparatus” refers to the apparatus reported by J. T. McConville, P. Sinswat, J. Tam, K. P. Johnston and R. O. Williams III, In vitro and in vivo validation of a high-concentration pre-clinical rodent dosing apparatus for inhalation, Proceedings of the American Association of Pharmaceutical Scientists, San Antonio, TX, October, 2006, relevant portions incorporated herein by reference. An animal dosing chamber was designed which consisted of hollow tubing (20×4.5 cm; nominal wall thickness of 0.4 cm) with four 1.75 cm adapter holes drilled at 7 cm intervals (2 holes along each side). The adapter holes were constructed to accept rodent restraint tubes from the Battelle® toxicology testing unit. A standard itraconazole (ITZ) colloidal suspension was nebulized into the apparatus for 5 minutes using a micro-pump nebulizer. Atomized droplets containing ITZ were driven into the chamber at a flow rate of 1 L/min. ITZ concentrations were measured in vitro at the 4 adapter ports, and in vivo from the lungs of 8 outbred-ICR mice in the appropriate mice restraining tubes at the adapter ports.
Example 11. […] ITZ concentrations were measured in vitro at the 4 adapter ports, and in vivo from the lungs of male outbred ICR mice in the appropriate mice restraining tubes at the adapter ports. […]

[2] = adult patients; cited from earlier work
[3] = Dissolution testing below equilibrium solubility (sink) in modified simulated lung fluid with 0.02% DPPC; type: physicochemical; settings: SLF 0.02% DPPC
Description: Dissolution Testing at Below Equilibrium Solubility. Dissolution testing at below equilibrium solubility was performed on the URF powder samples using a United States Pharmacopeia (USP) 27 Type 2 dissolution apparatus (VanKel VK6010 Dissolution Tester with a Vanderkamp VK650A heater/circulator, Varian, Inc. Palo Alto, CA). […] The dissolution media was maintained at 37.0±0.2° C. and stirred at a constant rate of 50 rpm. Samples (1 mL) were withdrawn at 10, 20, 30, 60 and 120 minute time points, filtered using a 0.45 μm GHP Acrodisc filter (VWR, Inc., West Chester, PA) and analyzed using a Shimadzu LC-10 liquid chromatograph (Shimadzu Corporation, Kyoto, Japan) equipped with an Alltech ODS-2, 5 μm C18 column (Alltech Associates, Inc., Deerfield, IL). The mobile phase consisted of a 70:30 (v/v) ACN: Water mixture, used at a flow rate of 1 mL/min. The maximum absorbance was measured at wavelength λmax=214 nm.
Example 5. […] Samples (1 mL) were withdrawn at 10, 20, 30, 60, and 120 minute time points, filtered using a 0.45 μm GHP Acrodisc filter (VWR, Inc. Westchester, PA), and analyzed using a Shimadzu LC-10 liquid chromatograph (Shimadzu Corporation, Kyoto, Japan) equipped with an Altech ODS-2, 5 μm C18 column (Altech Associates, Deerfield, IL). […] The maximum absorbance was measured at wavelength λ=214 nm.

[4] = BET specific surface area analysis; type: physicochemical
Description: As used herein, the term “BET Analysis” refers to a method for measuring the surface area of the exposed surface of a solid sample on the molecular scale. The BET (Brunauer, Emmet, and Teller) theory is typically used to determine the area of solids. Commonly, samples are prepared by heating and simultaneously evacuating or flowing gas over the sample to remove the liberated impurities. The prepared samples are then cooled with liquid nitrogen and analyzed by measuring the volume of gas (typically N2 or Kr) adsorbed at specific pressures. Krypton gas is often used when the measured surface is expected to be less than 2 m^2/g (typically pharmaceutical samples and natural organic materials). The skilled artisan will recognize that several types of instruments may be used for measuring surface area, which depends upon the extent of the surface or the gas required to achieve the best results. […]
BET Specific Surface Area Analysis. Specific surface area was measured using a Nova 2000 v. […] The data recorded were then analyzed according to BET theory using NOVA Enhanced Data Reduction Software v. […]
Example 3. […] Specific surface area was measured using a Nova 2000 v 6.11 instrument (Quantachrome Instruments, Boynton Beach, FL). […] The data recorded were then analyzed according to BET theory using NOVA Enhanced Data Reduction Software v. […]

[5] = Equilibrium solubility of TAC in modified simulated lung fluid with 0.02% DPPC; type: physicochemical; settings: modified simulated lung fluid (SLF) with 0.02% DPPC, 37 °C, fassgf or other biorelevant, thermodynamic from solid, modified simulated lung fluid 0.02% DPPC

Structure (SMILES)	ITZ Conc. in Lung Tissue [1]	average oral bioavailability [2]	dissolution of TAC ([3]; at 1 hr, 37° C.) [%]	dissolution of TAC ([3]; in 30 minutes, sink conditions) [%]	Specific Surface Area ([4]; Table 2) [m^2/g]	Surface Area (BET) ([4]; URF study, Table 4) [m^2/g]	solubility thermodynamic [5] [µg/mL]
CCC(C)n1ncn(-c2ccc(N3CCN(c4ccc(OCC5COC(Cn6cncn6)(c6ccc(Cl)cc6Cl)O5)cc4)CC3)cc2)c1=O (stereo not shown) [ITZ, itraconazole]	21.6 µg/g and 20.2 µg/g and 18.3 µg/g and 13.5 µg/g and 15.9 µg/g and 18.6 µg/g and 19.2 µg/g and 22.7 µg/g	–	–	–	–	–	–
C=CC[C@@H]1/C=C(\C)C[C@H](C)C[C@H](OC)[C@H]2O[C@@](O)(C(=O)C(=O)N3CCCC[C@H]3C(=O)O[C@H](/C(C)=C/[C@@H]3CC[C@@H](O)[C@H](OC)C3)[C@H](C)[C@@H](O)CC1=O)[C@H](C)C[C@@H]2OC [unprocessed TAC, Tacrolimus]	–	approximately 25%	30	30	0.533	0.53	~6.8 (≈ 8.46 µM)
